Entries after “also recorded” stand apart in the source; their conditions may differ.

The target in experiment [1] is T1, Bcl-xL (Homo sapiens, UniProt Q07817).
T1 construct: made in house; host or cells: E. coli
Nature of the experiment: Fluorescence polarization assay, Bim BH3 peptide binding to GST-Bcl-xL. Particulars: Bim-BH3-FITC peptide, read-out: IC50, inhibition of Bim-BH3 peptide binding to Bcl-xL.
Source text: A nineteen amino acid peptide, corresponding to the BH3 domain of Bim, with the sequence FITC-GGGIAQELRRIGDEFNAY (SEQ ID NO: 1) was labeled with the tluorophore FITC according to the manufacturer's instructions (Molecular Probes, Eugene, Oreg.). This sequence was identified as being able to bind to purified Bcl-xL protein (Sattler et al. (1997) Science 275(5302): 983-86) and to have biological activity in cells (Holinger et al. J. Biol. Chem. 274; 13298-1330).
In addition, recombinant GST -Mcl-1 and GST-Bcl-xL fusion proteins were generated in E.coli and purified using glutathione-sepharose beads using conventional techniques known to those skilled in the fields of biochemistry and molecular biology, (methods for preparation are described in Strategies for Protein Purification and Characterization, Marshak, D, Kadonga, J, Burgess R, Knuth, M, Brennan, W, Sue-Hwa, L, CSH press, Cold Spring Harbor, N.Y.). Binding of the recombinant proteins to the fluorescent Bim BH3 domain was confirmed by titration of increasing concentrations of the recombinant proteins against a constant amount of labeled Bim peptide (16.65 nM). Quantitation of binding was accomplished by FP assay with mP measurements made on the Analyst-GT reader (Molecular Devices, Sunnyvale, Calif.).
Further, the ability of compound A to disrupt the interaction between the fluorescent Bim BH3 peptide and the two fusion proteins was assessed using a fluorescence polarization assay. […]
(§1) Experiments are performed using the fluorescence polarization assay as described in Example 2. […] The IC50 for blocking each BH3 peptide from Mcl-1 are assessed using FP, as described in Example 2.
as §1

The subject of experiment [2] is mitochondria in semi-permeabilized SUDHL-6 cells. The experiment in a line: In situ mitochondrial assay (cytochrome c release), SUDHL-6. It is filed as cell-based. Particulars: SUDHL-6 (DHL-6), Bax/Bak functional, 10 uM. The text has this:
The on-target activity of compound II-19 was validated. Changes in mitochondrial integrity were observed utilizing anti-cytochrome c conjugated to Alcxa488 (BD). When the mitochondria are intact, they retain cytochrome c and have bright, punctate staining with the antibody whereas cells with compromised mitochondrial integrity will lose cytochrome c and will not stain with the antibody. This can be observed by microscopy as well as measured by a shift in fluorescence on the FL1 channel of a flow cytometer.
The selective response of mitochondria in semi-permeabilized cell lines to the compounds was observed. The assay was adapted from (Campos et al. (2006) Cytometry Part A. 69(A):515-523).
Suspension cell lines SUDHL10 and SUDHL6 were grown in RPMI, washed once in 1xPBS and re-suspended at a concentration of 2e6/ml in assay buffer with 0.0025% Digitonin. Assay buffer; 300 mM Trehalose, 10 mM HEPES-KOH pH 7.7, 80 mM KCl, 1 mM EGTA, 1 mM EDTA, 0.1% BSA, 5 mM Succinate. Cells are incubated with test and control compounds at 10^6 cells/treatment for 1 hour at room temperature. […] Cytochrome c loss was measured by microscopy. At least 100 cells per treatment were counted and scored as positive for cytochrome c loss if they lacked staining. In both methods DMSO was calculated as 0% cytochrome c loss and the Bim response for DHL6 was used to determine 100% cytochrome c loss.

T1 sequence (Q07817 whole entry): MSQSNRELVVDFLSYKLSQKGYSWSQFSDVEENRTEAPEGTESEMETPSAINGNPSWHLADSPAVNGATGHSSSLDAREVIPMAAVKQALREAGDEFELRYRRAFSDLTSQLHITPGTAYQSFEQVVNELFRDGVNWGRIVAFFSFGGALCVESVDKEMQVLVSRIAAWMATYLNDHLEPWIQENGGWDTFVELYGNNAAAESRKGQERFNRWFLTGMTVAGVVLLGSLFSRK

On to `COC(=O)c1ccc(O)c2nc3c(C=O)c(O)c(-c4c(O)c(C=O)c5nc6c(O)ccc(C(=O)OC)c6nc5c4O)c(O)c3nc12` [II-19, dimethyl 4,4′-diformyl-1,1′,3,3′,6,6′-hexahydroxy-[2,2′-biphenazine]-9,9′-dicarboxylate], for which the IC50 in experiment [1] worked out at 15 nM. In addition, the “cytochrome c release from mitochondria” value in experiment [2] was “causes release of cytochrome c; also recorded: direct activity”.

The record behind these values is patent US9351971B2, “Substituted 2,2′-biphenazines for treating diseases” (Eutropics Pharmaceuticals, Inc., priority 2010, dated 2016).
